Test results taken from publication PMC10018608 (Signal Transduction and Targeted Therapy, 2023).
Like-named read-outs stand apart in the source and are kept apart here.

Tests used:
SARS-CoV-2 M^pro [1] = biological target: T1, SARS-CoV-2 M^pro (Severe acute respiratory syndrome coronavirus 2, UniProt P0DTD1); assay: biochemical; settings: mean ± SD from three experiments
SARS-CoV-2 M^pro [2] = biological target: T1, SARS-CoV-2 M^pro; assay: Differential scanning fluorimetry (DSF) assay; type: binding; settings: mean ± SD (n = 3)
Method: M^pro was mixed with tested compounds and 5 × SYPRO Orange dye (Sigma) avoiding from light. The thermal denaturation spectra were run from 20 °C to 95 °C at a gradient of 1.5 °C/min (CFX96, BioRad). Data were analyzed by Boltzmann model to calculate the melt temperature (Tm). The equation ΔTm = Tm(compound) − Tm(DMSO) was used to calculate the thermal shift (ΔTm). The values are presented as mean ± SD (n = 3).

Structure (SMILES) | IC50 (SARS-CoV-2 M^pro [1]) [µM] | IC50 (SARS-CoV-2 M^pro [1]; […]) [µM] | other results
O=C(NCc1cocn1)C(=O)[C@@H](Cc1ccccc1)NC(=O)c1ccccc1 [1e] | – | – | IC50 (SARS-CoV-2 M^pro [1]; read-out: IC50 against SARS-CoV-2 M^pro (FRET)): 11.4 ± 0.08 µM
O=C(CNC(=O)c1ccccc1)N[C@H](Cc1ccccc1)C(=O)C(=O)NCc1nccs1 [3g] | 1.86 ± 0.04 | – | –
O=C(CNC(=O)C1CCC(F)(F)C1)N[C@H](Cc1ccccc1)C(=O)C(=O)NCc1nccs1 (stereo partly shown) [3p] | – | 0.0565 ± 0.0054 | –
O=C(CNC(=O)c1ccc(F)cc1)N[C@H](Cc1ccccc1)C(=O)C(=O)NCc1nccs1 [3m] | – | 0.3484 ± 0.003 | –
O=C(NCc1nccs1)C(=O)[C@@H](Cc1cc(F)c(F)cc1F)NC(=O)c1ccccc1 [2d] | 3.37 ± 0.18 | – | –
O=C(NCc1nccs1)C(=O)[C@@H](Cc1ccccc1)NC(=O)c1ccc(F)cc1 [3c] | 1.31 ± 0.1 | – | –
Cc1csc(CNC(=O)C(=O)[C@@H](Cc2ccccc2)NC(=O)c2ccccc2)n1 [1i] | 40.7 ± 1.5 | – | –
C[C@@H](NC(=O)C1CCCC(F)(F)C1)C(=O)N[C@H](Cc1ccccc1)C(=O)C(=O)NCc1nccs1 (stereo partly shown) [3s] | – | 0.0283 ± 0.0006 | –
O=C(CC1CC(F)(F)C1)NCC(=O)N[C@H](Cc1ccccc1)C(=O)C(=O)NCc1nccs1 [3q] | – | 0.0234 ± 0.0022 | –
O=C(CNC(=O)c1cccnc1)N[C@H](Cc1ccccc1)C(=O)C(=O)NCc1nccs1 [3j] | 2.23 ± 0.37 | – | –
O=C(CNC(=O)c1ccccn1)N[C@H](Cc1ccccc1)C(=O)C(=O)NCc1nccs1 [3i] | 2.24 ± 0.1 | – | –
C[C@@H](NC(=O)C1CCC(F)(F)C1)C(=O)N[C@H](Cc1ccccc1)C(=O)C(=O)NCc1nccs1 (stereo partly shown) [3t] | – | 0.0225 ± 0.0007 | –
O=C(Cc1ccccc1)N[C@H](Cc1ccccc1)C(=O)C(=O)NCc1nccs1 [3d] | – | 0.949 ± 0.0399 | –
O=C(NCc1nccs1)C(=O)[C@@H](Cc1cccc(Cl)c1)NC(=O)c1ccccc1 [2f] | 1.43 ± 0.15 | – | –
O=C(CNC(=O)C1CCC(F)(F)CC1)N[C@H](Cc1ccccc1)C(=O)C(=O)NCc1nccs1 [3n] | – | 0.0503 ± 0.0026 | –
O=C(NCc1nccs1)C(=O)[C@@H](Cc1ccccc1)NC(=O)c1ccccc1 [1a, (R)-N-(3,4-dioxo-1-phenyl-4-((thiazol-2-ylmethyl)amino)butan-2-yl)benzamide] | 1.3 | – | thermal shift (ΔTm) (SARS-CoV-2 M^pro [2]): 8.45 ± 0.35 °C
O=C(NCc1ccon1)C(=O)[C@@H](Cc1ccccc1)NC(=O)c1ccccc1 [1f] | 54.74 ± 0.35 | – | –
O=C(NCc1ncon1)C(=O)[C@@H](Cc1ccccc1)NC(=O)c1ccccc1 [1g] | 53.1 ± 3.34 | – | –
O=C(CNC(=O)c1ccccc1F)N[C@H](Cc1ccccc1)C(=O)C(=O)NCc1nccs1 [3k] | – | 0.9983 ± 0.0002 | –
O=C(NCc1nccs1)C(=O)[C@@H](Cc1ccccc1)NC(=O)c1ccccc1F [3a, (R)-N-(3,4-dioxo-1-phenyl-4-((thiazol-2-ylmethyl)amino)butan-2-yl)-2-fluorobenzamide] | – | 0.264 ± 0.004 | –

Structure (SMILES) | IC50 (SARS-CoV-2 M^pro [1]) [µM] | IC50 (SARS-CoV-2 M^pro [1]; […]) [µM] | other results
O=C(NCc1cccs1)C(=O)[C@@H](Cc1ccccc1)NC(=O)c1ccccc1 [1b] | 77.3 ± 2.31 | – | –
O=C(NCc1ncco1)C(=O)[C@@H](Cc1ccccc1)NC(=O)c1ccccc1 [1d] | 51.5 ± 0.94 | – | –
O=C(NCc1nccs1)C(=O)[C@@H](Cc1ccccc1)NC(=O)c1cccc(F)c1 [3b] | – | 0.478 ± 0.0048 | –
C[C@@H](NC(=O)CC1CC(F)(F)C1)C(=O)N[C@H](Cc1ccccc1)C(=O)C(=O)NCc1nccs1 [3u] | – | 0.0172 ± 0.0003 | –
O=C(NCc1cnc(Cl)s1)C(=O)[C@@H](Cc1ccccc1)NC(=O)c1ccccc1 [1j] | 95.2 ± 5.99 | – | –
O=C(CNC(=O)c1cccc(F)c1)N[C@H](Cc1ccccc1)C(=O)C(=O)NCc1nccs1 [3l] | – | 0.5382 ± 0.0043 | –
O=C(NCc1ncno1)C(=O)[C@@H](Cc1ccccc1)NC(=O)c1ccccc1 [1h] | 62.3 ± 2.07 | – | –
O=C(CNC(=O)c1cnccn1)N[C@H](Cc1ccccc1)C(=O)C(=O)NCc1nccs1 [3h] | 3.62 ± 0.27 | – | –
COC[C@@H](NC(=O)CC1CC(F)(F)C1)C(=O)N[C@H](Cc1ccccc1)C(=O)C(=O)NCc1nccs1 [3x] | – | 0.0102 ± 0.0001 | –
O=C(CCc1ccccc1)N[C@H](Cc1ccccc1)C(=O)C(=O)NCc1nccs1 [3e] | 1.22 ± 0.1 | – | –
O=C(NCc1ccco1)C(=O)[C@@H](Cc1ccccc1)NC(=O)c1ccccc1 [1c] | 37.2 ± 0.51 | – | –
O=C(NCc1nccs1)C(=O)[C@@H](Cc1ccccc1F)NC(=O)c1ccccc1 [2a] | 3.5 ± 0.23 | – | –
O=C(NCc1nccs1)C(=O)[C@@H](CC1CCCCC1)NC(=O)c1ccccc1 [2e] | 10.5 ± 0.63 | – | –
O=C(COc1ccccc1)N[C@H](Cc1ccccc1)C(=O)C(=O)NCc1nccs1 [3f] | – | 0.8808 ± 0.0012 | –
O=C(NCc1nccs1)C(=O)[C@@H](Cc1ccc(Cl)c(Cl)c1)NC(=O)c1ccccc1 [2g] | 2.03 ± 0.07 | – | –
O=C(NCc1nccs1)C(=O)[C@@H](Cc1ccc(F)cc1)NC(=O)c1ccccc1 [2c, (R)-N-(1-(4-fluorophenyl)-3,4-dioxo-4-((thiazol-2-ylmethyl)amino)butan-2-yl)benzamide] | 1.95 ± 0.29 | – | –
COC[C@@H](NC(=O)C1CCC(F)(F)CC1)C(=O)N[C@H](Cc1ccccc1)C(=O)C(=O)NCc1nccs1 [3v] | – | 0.0184 ± 0.0013 | –
O=C(NCc1nccs1)C(=O)[C@@H](Cc1cccc(F)c1)NC(=O)c1ccccc1 [2b] | 2.55 ± 0.02 | – | –
O=C(CNC(=O)C1CCCC(F)(F)C1)N[C@H](Cc1ccccc1)C(=O)C(=O)NCc1nccs1 (stereo partly shown) [3o] | – | 0.0458 ± 0.0021 | –
